Results published in patent US7615361B2, “Toxicity screening methods” (Ceetox, Inc., priority 2006, dated 2009).
Read-outs that look alike come from different tables or passages of the source.

How the values were obtained:
[1] = MTT reduction; type: cell-based, rat; conditions: rat
Procedure: (§1) One test compound (Compound A) was received as dry powder and evaluated for potential cytotoxicity in a battery of in vitro assays. The compound was tested using both rat cardiomyocytes (CM) from rat neonates and a rat hepatoma (H4IIE) cell line. […] The cell supernatant or the cells themselves were harvested for biochemical analysis. General cytotoxicity was evaluated by monitoring membrane integrity, mitochondrial function, cell proliferation, oxidative stress, and apoptosis. In addition, interaction with P-glycoprotein (PgP) on H4IIE cells and solubility of the test compound were also assessed. The means of each exposure group (n=3-7) were calculated for each assay performed.
(§2) Experimental Protocol: The test compound was provided and stored at 4° C. until needed. Dosing solutions were prepared in complete culture medium. The rat hepatoma (H4IIE) cell line was used as the test system.
Tetrazolium Dye Reduction: 3-[4,5-dimethylthiazol-2-yl]

[2] = system: P-glycoprotein (PgP); assay: P-glycoprotein (PgP) binding: MTT with and without cyclosporin A; type: cell-based, rat; conditions: for % Difference: 1-20% low, 20-50% moderate, 50-100% high PgP interaction
Procedure: Several antiviral drugs are substrates for P-glycoprotein transporter (PgP).
P-glycoprotein (PgP) transport proteins are expressed in the bile canalicular membrane of normal liver. However, in neoplastic cells it is not uncommon to have expression of this transporter system in the plasma membrane. […] The existence of these transporters was evaluated with the Calcein-AM assay and with known substrates of PgP.

[3] = system: H4IIE cells; assay: Membrane lipid peroxidation (8-isoprostane ELISA); type: cell-based, rat
Procedure: (§3) One test compound (Compound A) was received as dry powder and evaluated for potential cytotoxicity in a battery of in vitro assays. The compound was tested using both rat cardiomyocytes (CM) from rat neonates and a rat hepatoma (H4IIE) cell line. […] Camptothecin and rotenone were included as positive control compounds. The cell supernatant or the cells themselves were harvested for biochemical analysis. General cytotoxicity was evaluated by monitoring membrane integrity, mitochondrial function, cell proliferation, oxidative stress, and apoptosis. In addition, interaction with P-glycoprotein (PgP) on H4IIE cells and solubility of the test compound were also assessed. The means of each exposure group (n=3-7) were calculated for each assay performed. Intra assay variation well-to-well was typically less than 10% with plate to plate variation typically less than 20%.
as §2

[4] = MemTox membrane leakage (AK / α-GST); type: cell-based, rat; conditions: rat
Procedure: as §1, §2
Membrane Leakage (α-Glutathione S-transferase and/or Adenylate Kinase): The presence of Adenylate Kinase (AK) or α-Glutathione S-transferase (α-GST), both enzyme leakage markers, was measured in the culture medium using an activity assay for Adenylate Kinase and/or an ELISA assay for α-GST. At the end of the exposure period, the medium covering the cells in each well was removed and placed into new 96-well plates with appropriate labeling. […] Luminescence (AK) values were measured with a Packard Fusion or equivalent plate reader, and absorbance (α-GST) values were measured with a Packard SpectraCount™ or equivalent reader at 450 nm and reference absorbance at 650 nm.
Membrane Leakage (α-Glutathione S-transferase and/or Adenylate Kinase): Leakage of Adenylate Kinase or α-GST from the cell into the culture medium was determined by collecting the culture medium at the end of the exposure period. Thus, the values measured represent total enzyme leakage lost over the exposure period. The control for 100% dead or maximum enzyme release was based on cells treated with 1 mM digitonin at the time of dosing. Percent dead cells relative to digitonin treated cells was determined and then subtracted from 100% to yield the percent live cells.

[5] = system: H4IIE cells; assay: Predicted Ctox from Tox-Panel; type: cell-based, rat; conditions: 24 HR, estimated sustained plasma concentration where toxicity would be expected in vivo
Procedure: Once all data for a given cluster of assays are received, the data are analyzed to obtain a detailed profile of the compound's toxicity. For example, most conveniently, the data are collated over a dose response range on a single graph. In such an embodiment, the measurement evaluated for each parameter (i.e., each indicator of cell health) at any given concentration is plotted as a percentage of a control measurement obtained in the absence of the compound. However, it should be noted that the data need not be plotted on a single graph, so long as all the parameters are analyzed collectively to yield detailed information of the effects of the concentration of the compound on the different parameters to yield an overall toxicity profile. As set forth below, this overall toxicity profile will facilitate a determination of a plasma concentration Ctox that is predicted to be toxic in vivo. Ctox represents an estimate of the sustained plasma concentration in vivo that would result in toxicity, such as hepatotoxicity or hematopoietic toxicity.
Studies such as these indicate that a preferred concentration for setting Ctox is the highest concentration at which there is no observed effect on any of the indicators being measured in the cluster analysis, especially a 24-hour cluster analysis. […] It will be apparent that 24 hour assays are more time-effective, and consequently, the 24 hour NOEL/Ctox represents a preferred data point to select as Ctox in a CATS assay. It will also be apparent that, with further time studies, it may be possible to select an equally suitable Ctox at other CATS assay time points (e.g., between 24 and 72 hours, or less than 24 hours).
In certain embodiments, the predicting comprises performing concentration response analyses of measurements from at least three separate assays that are employed in the cluster analysis. For example, in the cell health cluster, such predicting will involve monitoring the concentration response effect of the compound on a first health indicator which monitors cellular replication, a second cell health indicator which monitors mitochondrial function, and a third cell health indicator which monitors membrane integrity. Of course, it is understood that fourth, fifth, sixth or more cell health indicators also may be employed. From these concentration response analyses, the highest concentration of the chemical compound at which a measurable toxic effect of the chemical compound is not observable, i.e. NOEL, is determined and the Ctox is identified as the concentration that correlates to the NOEL. In choosing the concentrations of the compound for analysis, one of skill in the art should devise a dose response regimen which is selected to provide an indication of cell health at concentrations of at least two concentration values higher than the Ctox concentration.
The Ctox (H4IIE) value was developed using 24 hr in vitro toxicity data and was validated by retrospectively evaluating compounds across different classes of drugs in 14-day rat studies in which compounds were administered on a daily basis and pharmacokinetic data was available. […] Thus, Ctox values are only determined for the 24 hr in vitro results. The 6 hr toxicity analyses are typically not performed but are beneficial for interpretation of results when compound toxicity is high (e.g., Ctox≦20 μM).

[6] = system: rat cardiomyocytes; assay: Membrane lipid peroxidation (8-isoprostane ELISA); type: cell-based
Procedure: as §3

[7] = H4IIE 24 HR, MTT, 50 μM, with cyclosporin A
[8] = H4IIE 24 HR, MTT, 50 μM, without CSA

SMILES: Nc1nc(NC2CC2)c2ncn([C@H]3C=C[C@@H](CO)C3)c2n1 [ABACAVIR, abacavir]
- CC50 at 24 h ([1]; MTT TC50): > 300 µM
- % Control (Compound + CSA) [2, 7]: 104.8%
- % Control (Compound) [2, 8]: 97.6%
- Membrane Lipid Peroxidation ([3]; rat, 24 h): 0
- CC50 at 24 h ([4]; MemTox TC50): > 300 µM
- Predicted Ctox [5]: 65 µM

SMILES: COc1cccc2c1C(=O)c1c(O)c3c(c(O)c1C2=O)C[C@@](O)(C(=O)CO)C[C@@H]3O[C@H]1C[C@H](N)[C@H](O)[C@H](C)O1 [ADRIAMYCIN, Adriamycin]
- CC50 at 24 h ([1]; MTT TC50): 13 µM
- Membrane Lipid Peroxidation ([6]; rat, 1 h): 0
- Membrane Lipid Peroxidation ([6]; rat, 3 h): 0
- Membrane Lipid Peroxidation ([6]; rat, 6 h): 0
- Membrane Lipid Peroxidation ([6]; rat, 24 h): 0
- % Control (Compound + CSA) [2, 7]: 0.0%
- % Control (Compound + CSA) ([2]; H4IIE 24 HR, MTT, 50 μM, with cyclosporin A, listed as DOXORUBICIN): 13.7%
- % Control (Compound) [2, 8]: 8.0%
- % Control (Compound) ([2]; H4IIE 24 HR, MTT, 50 μM, without CSA, listed as DOXORUBICIN): 59.3%
- % Difference ([2]; H4IIE 24 HR): 76.9%
- Membrane Lipid Peroxidation ([3]; rat, 24 h): 0
- Predicted Ctox [5]: 1 µM
- Predicted Ctox ([5]; listed as DOXORUBICIN): 7 µM

SMILES: CC[C@@]1(O)C(=O)OCc2c1cc1n(c2=O)Cc2cc3ccccc3nc2-1 [CAMPTOTHECIN, Camptothecin]
- CC50 at 24 h ([1]; H4IIE rat hepatoma cells, H4IIE, 24 HR exposure, read-out: MTT TC50): 1 µM
- Membrane Lipid Peroxidation ([6]; CM, 24 HR): 0
- % Control (Compound + CSA) [2, 7]: 26.0%
- % Control (Compound) [2, 8]: 23.6%
- Membrane Lipid Peroxidation ([3]; H4IIE, 24 HR): 1 (1 = Modest increase with maximum values ≦15 pg/mL)
- CC50 at 24 h ([4]; H4IIE rat hepatoma cells, H4IIE, 24 HR exposure, read-out: MemTox TC50): > 300 µM
- Predicted Ctox [5]: 0.1 µM

SMILES: COc1cccc2c1C(=O)c1c(O)c3c(c(O)c1C2=O)C[C@@](O)(C(C)=O)C[C@@H]3O[C@H]1C[C@H](N)[C@H](O)[C@H](C)O1 [DAUNORUBICIN, daunorubicin]
- CC50 at 24 h [1]: 14 µM
- Membrane Lipid Peroxidation ([6]; rat, 24 h): 0
- % Control (Compound + CSA) [2]: 5.5%
- % Control (Compound) [2]: 9.3%
- Membrane Lipid Peroxidation ([3]; rat, 24 h): 0
- CC50 at 24 h [4]: 41 µM
- Predicted Ctox [5]: 3 µM

SMILES: CC(C)Nc1cccnc1N1CCN(C(=O)c2cc3cc(NS(C)(=O)=O)ccc3[nH]2)CC1 [DELAVIRDINE, delavirdine]
- CC50 at 24 h ([1]; MTT TC50): 218 µM
- Membrane Lipid Peroxidation ([6]; rat, 24 h): 0
- % Control (Compound + CSA) [2, 7]: 62.3%
- % Control (Compound) [2, 8]: 89.8%
- % Difference ([2]; H4IIE 24 HR): 30.7%
- CC50 at 24 h ([4]; MemTox TC50): > 300 µM
- Predicted Ctox [5]: 68 µM

SMILES: O=C1Nc2ccc(Cl)cc2[C@@](C#CC2CC2)(C(F)(F)F)O1 [EFAVIRENZ, efavirenz]
- CC50 at 24 h ([1]; MTT TC50): 161 µM
- % Control (Compound + CSA) [2, 7]: 70.1%
- % Control (Compound) [2, 8]: 89.0%
- % Difference ([2]; H4IIE 24 HR): 21.3%
- Membrane Lipid Peroxidation ([3]; rat, 24 h): 0
- CC50 at 24 h ([4]; MemTox TC50): 181 µM
- Predicted Ctox [5]: 58 µM

SMILES: COc1cccc2c1C(=O)c1c(O)c3c(c(O)c1C2=O)C[C@@](O)(C(=O)CO)C[C@@H]3O[C@H]1C[C@H](N)[C@@H](O)[C@H](C)O1 [EPIRUBICIN, epirubicin]
- CC50 at 24 h ([1]; MTT TC50): 81 µM
- Membrane Lipid Peroxidation ([6]; rat, 24 h): 0
- % Control (Compound + CSA) [2, 7]: 11.8%
- % Control (Compound) [2, 8]: 59.7%
- % Difference ([2]; H4IIE 24 HR): 80.3%
- Membrane Lipid Peroxidation ([3]; rat, 24 h): 0
- CC50 at 24 h ([4]; MemTox TC50): 37 µM
- Predicted Ctox [5]: 8 µM

SMILES: CC(=O)[C@]1(O)Cc2c(O)c3c(c(O)c2[C@@H](O[C@H]2C[C@H](N)[C@H](O)[C@H](C)O2)C1)C(=O)c1ccccc1C3=O [IDARUBICIN, idarubicin]
- CC50 at 24 h ([1]; MTT TC50): 3 µM
- Membrane Lipid Peroxidation ([6]; rat, 24 h): 0
- % Control (Compound + CSA) [2, 7]: 0.0%
- % Control (Compound) [2, 8]: 0.8%
- Membrane Lipid Peroxidation ([3]; rat, 24 h): 0
- CC50 at 24 h ([4]; MemTox TC50): 30 µM
- Predicted Ctox [5]: 1 µM

SMILES: Cc1cccc(C)c1OCC(=O)N[C@@H](Cc1ccccc1)[C@@H](O)C[C@H](Cc1ccccc1)NC(=O)[C@H](C(C)C)N1CCCNC1=O [LOPINAVIR, lopinavir]
- CC50 at 24 h ([1]; MTT TC50): 184 µM
- Membrane Lipid Peroxidation ([6]; rat, 24 h): 0
- % Control (Compound + CSA) [2, 7]: 82.1%
- % Control (Compound) [2, 8]: 98.0%
- % Difference ([2]; H4IIE 24 HR): 16.2%
- Membrane Lipid Peroxidation ([3]; rat, 24 h): 0
- CC50 at 24 h ([4]; MemTox TC50): > 300 µM
- Predicted Ctox [5]: 60 µM

SMILES: O=C1c2c(O)ccc(O)c2C(=O)c2c(NCCNCCO)ccc(NCCNCCO)c21 [MITOXANTRONE, mitoxantrone]
- CC50 at 24 h ([1]; MTT TC50): > 300 µM
- Membrane Lipid Peroxidation ([6]; rat, 24 h): 0
- % Control (Compound + CSA) [2, 7]: 10.4%
- % Control (Compound) [2, 8]: 69.9%
- % Difference ([2]; H4IIE 24 HR): 85.1%
- Membrane Lipid Peroxidation ([3]; rat, 24 h): 0
- CC50 at 24 h ([4]; MemTox TC50): > 300 µM
- Predicted Ctox [5]: 11 µM
